Experimental data taken from patent US4481198A, “Vitamin D metabolism inhibitor” (Wisconsin Alumni Research Foundation, priority 1984, dated 1984).
Where “and” joins values, the source holds several entries; their conditions need not be identical. Equal entries are not always repeated. Entries after “also recorded” stand apart in the source; their conditions may differ.

Legend:
[1] = tested on: 25-hydroxylation of vitamin D3; settings: high doses required; cited from earlier work
[2] = tested on: enzymatic 25-hydroxylation of vitamin D3 (microsomal enzyme system from rat liver); assay: in vitro 25-hydroxylation of vitamin D3 in rat liver microsomal enzyme system; format: biochemical
Method: Male rats, obtained as weanlings (Holtzman, Madison, WI) were maintained on a vitamin D-deficient 0.5% calcium and 0.3% phosphorus diet for 4-6 weeks prior to use for in vitro 25-hydroxylation assays. Animals were fasted 18 h to deplete glycogen stores prior to study.
The microsomes were prepared by the method of Madhok and DeLuca (Biochem. J. 184, 491 (1979)). Livers were homogenized in 3 vol of 0.25M sucrose using a Potter-Elvehjem homogenizer fitted with a Teflon pestle. All centrifugation steps were done using a type 30 rotor and a Beckman L5-50 ultracentrifuge (Beckman Instruments, Lincolnwood, Ill.). […]
The work-up of the incubation mixture involved separation of the organic phase, and evaporation of solvent; the residue was then taken up in hexane:CHCl3 :MeOH (90:10:5) and applied to a Sephadex LH-20 column (Pharmacia, Piscataway, N.J.) (0.7×12 cm). […] The radioactivity in the 25-OH-D3region was used as a measure of enzyme activity and the UV peak (254 nm) as a measure of recovery. Radioactivity was determined on a Packard Instruments 3255 liquid scintillation counter using a toluene counting solution with 0.4% p-bis-[2-(5-phenyloxazolyl)]-benzene and 0.03% dimethyl-1,4-bis-[2-(5-phenyloxazolyl)]-benzene. […] The enzyme activity was expressed as picomole product (25-OH-D3) produced per milligram protein per 2 hours.

Compound | inhibition of 25-hydroxylation of vitamin D3 by known antagonists (in words) [1] | 25-OH-D3 Formation ([2]; [S] 200 nM vitamin D3, [I] 500 nM, inhibitor preincubated at 37° C. for 10 min, controls without inhibitor 0.46, 0.24, 0.36) | inhibition of 25-OH-D3 formation from vitamin D3 (in words) ([2]; rat liver microsomal system, 500 nM inhibitor, 2.5 times the substrate concentration)
CC(C)CCC[C@@H](C)[C@H]1CC[C@H]2/C(=C/C=C3/C[C@@H](O)CCC3CO)CCC[C@]12C (stereo partly drawn) [19-hydroxy-10,19-dihydro-vitamin D3] | partial inhibition | – | –
C=C1CC[C@H](O)C/C1=C/C=C1\CCC[C@]2(C)[C@@H]([C@H](C)CCC(=NO)C(C)C)CC[C@@H]12 [24-(NOH)D3, vitamin D3-24-oxime] | – | 0.09 pmol/2h/mg protein and 0.05 pmol/2h/mg protein | markedly suppressed; also recorded: dramatically suppresses
